From a melting point compilation (Tetko et al.; mined from patent text by program, amines drawn as free bases though some values may be those of a salt)

First: O=C(c1ccc2nonc2c1)N(C1CCOCC1)C1CC1
Second: O=C(C1Oc2ccccc2OC1c1ccccc1)N1CCOCC1 (stereo not given)
The melting point of the first is lower: 108 to 109 °C for the first, 148 to 150 °C for the second.

Compared with `Cc1c(C)c2c(c3c1NCC3)CC(C)(CI)O2` (stereo not given), `Cc1cc2c(c(C)c1S(=O)(=O)C[N+](=O)[O-])CCC(C)(C)O2` is higher in melting point: 97 to 98 °C for the first, 110 to 111 °C for the second.

First: COC(=O)c1scc(C)c1NC(=O)CC12CC3CC(CC(C3)C1)C2
Second: COC(=O)c1nc(Cl)c(F)c(NC(C)=O)c1Cl
The melting point of the first is lower: 124 °C for the first, 183 to 186 °C for the second.

Compared with `COc1ccc2cc3c(c(-c4ccc(F)cc4)c2c1)C(=O)NC3=O`, `COc1ccc(-n2nc(-c3ccc(F)cc3)c(-c3ccncc3)c2-c2c[nH]cn2)cc1` is lower in melting point: 281 to 284 °C for the first, 124 to 126 °C for the second.

First: CNC(=S)NS(=O)(=O)c1cc(CCNC(=O)/C=C/c2cccs2)ccc1-c1ccco1
Second: COc1cc(OC)c(-c2cccs2)cc1/C=C/C(=O)c1ccc(S(=O)(=O)NCCN2CCOCC2)cc1
The melting point of the first is higher: 175 to 176 °C for the first, 171 to 172 °C for the second.

First: COc1ccc(NC(=O)c2ccc(-c3ccc(-c4nc(N)no4)cc3C)cc2)cc1N1CCN(C)CC1
Second: COc1cc(Nc2nc3cccc(-c4ccc(C(N)=O)cc4)c3o2)cc(OC)c1OC
The melting point of the first is lower: 169 to 171 °C for the first, over 280 °C for the second.

Compared with `NS(=O)(=O)c1cc2c(s1)CCC(O)C2` (stereo not given), `Oc1ccc2c(c1)CC(NCc1ccccc1)CC2` (stereo not given) is lower in melting point: 176 to 179 °C for the first, 161 to 163 °C for the second.

Compared with `O=c1c2cc(F)c(F)cc2n(-c2ccc(F)cc2)c(=O)n1OCc1ccccc1`, `Cc1cccc(C(C)(C)C)c1-n1sc(=O)n(Cc2ccccc2)c1=O` is lower in melting point: 201 to 202 °C for the first, 89.8 °C for the second.

Compared with `CCCCCCCCCCCCCC(=O)Nc1ccc(OC)c(Nc2cc(=O)n(-c3c(Cl)cc(Cl)cc3Cl)[nH]2)c1`, `CCCCN(CCCC)C(=O)Cc1ccccc1Nc1c(Cl)cccc1Cl` is lower in melting point: 89 to 93 °C for the first, 66 to 68 °C for the second.

Compared with `CC(CC#CC(C)(C)O)C1=CCC2C3=CC=C4CC(O)CCC4(C)C3CCC12C` (stereo not given), `CC(=O)C1CCC2C3CCC4CC(O)CCC4(C)C3C(OC(=O)CCl)CC12C` (stereo not given) is lower in melting point: 185 to 192 °C for the first, 83 to 86 °C for the second.

First: CNc1nc(C)c(-c2ccnc(Nc3cccc(CC(=O)OCCOC)c3)n2)s1
Second: COc1cccc(CNC(=O)c2nc3ccc(F)c(OCCc4ccc(NS(N)(=O)=O)cc4)c3c(=O)[nH]2)c1
The melting point of the first is lower: 193 to 195 °C for the first, 204 to 206 °C for the second.

First: O=c1[nH]c2cc(OCC(O)CN3CCOCC3)ccc2c2oc3ccccc3c12 (stereo not given)
Second: O=C1C(=O)c2ccccc2C2=C1SCC1(CCN(CC(O)CN3CCOCC3)CC1)O2 (stereo not given)
The melting point of the first is higher: 228 to 230 °C for the first, 75 to 78 °C for the second.

Compared with `COc1ccc(C(=NOC(C)=O)c2cc(F)ccc2F)c(O)c1Cl`, `NC(=O)c1cnc2ccc(Cl)cc2c1Cl` is higher in melting point: 130 to 131 °C for the first, 209 °C for the second.

Compared with `COc1cnc(CSc2nc3cc(OCC(F)(F)F)ccc3[nH]2)cc1OC`, `COc1ccc(-n2cnc3ccc(-c4nnc(SCc5cccc(C(F)(F)F)c5)o4)cc32)cc1` is higher in melting point: 55 to 57 °C for the first, 174 to 175 °C for the second.

First: O=C(O)C=Cc1cn(CC(C(=O)c2ccc(Cl)cc2Cl)c2ccccc2)cn1 (stereo not given)
Second: O=C(c1c(Cl)cccc1Cl)n1ccnc1-c1ccccc1
The melting point of the first is higher: 229 to 231 °C for the first, 110 to 114 °C for the second.

First: Cc1ccccc1-c1ccc(C(=O)N2Cc3ccc(C(=O)NCc4ccc5c(c4)OCO5)n3Cc3ccccc32)cc1C
Second: CC(CCC(=O)O)c1ccc2c(c1)C(=O)c1ccccc1CO2 (stereo not given)
The melting point of the first is higher: 149 to 151 °C for the first, 120 to 124 °C for the second.

Compared with `CC(C)(C)OC(=O)C(CC(=O)O)N1C(=O)C2NC(C)(C)SC21` (stereo not given), `Cn1cc(-c2cccc(F)c2)c(C(=O)NCCNC(=O)OC(C)(C)C)n1` is lower in melting point: 137 to 138 °C for the first, 124 °C for the second.

First: CCOCc1nc2c(N)nc(C)c(C)c2n1CCOCc1ccccc1
Second: Cc1nc2c(N)nc3ccccc3c2n1OC(C)(C)C
The melting point of the first is lower: 107 to 108 °C for the first, 255 to 257 °C for the second.

First: O=[N+]([O-])c1cc2c(cc1[N+](=O)[O-])OC(CC(F)(F)F)(C(F)(F)F)O2
Second: CC(=O)N(c1ncc(C(F)(F)F)cc1Cl)c1c([N+](=O)[O-])cc(C(F)(F)F)c(Cl)c1[N+](=O)[O-]
The melting point of the first is higher: 101 to 103 °C for the first, 75 to 77 °C for the second.

Compared with `CC(CN(C)C)C(CNC(N)=O)(c1ccccc1)c1ccccc1` (stereo not given), `Cc1ccccc1COc1cccnc1NC(=S)Nc1ccccc1` is lower in melting point: 226 to 228 °C for the first, 150 to 151 °C for the second.

First: Nc1ccc(Sc2cccc3nccn23)cc1
Second: COc1cc(-c2cncn2-c2ccc(S(C)(=O)=O)cc2)ccc1C
The melting point of the first is lower: 167 to 168 °C for the first, 174 to 175 °C for the second.

First: Cc1ccc2c(c1)N(C(=O)NCCN1CCC(CCCN(C(C)C)C(C)C)CC1)c1ncccc1NC2=O
Second: O=C(NC1=Nc2cc(O)ccc2C2=NCCN12)c1cccnc1
The melting point of the first is lower: 160 to 162 °C for the first, 289 °C for the second.

First: COCC1(C)Oc2ccc(C#N)cc2C2OC21 (stereo not given)
Second: N#Cc1cccc(C(=O)NCc2cccc3c2CN(C2CCC(=O)NC2=O)C3=O)c1 (stereo not given)
The melting point of the first is lower: 88 to 90 °C for the first, 282 to 284 °C for the second.

First: COc1cc2c3c(c1)[nH]c(=S)n3CCC2
Second: COc1cc2c(cc1OCc1ccccc1)CCCCC2=O
The melting point of the first is higher: 188 to 192 °C for the first, 95 to 96 °C for the second.

First: COC(=O)Nc1nc2ccccc2n1-c1nc(N2CCOCC2)nc(N2CCOCC2)n1
Second: O=C(CCN1CCOCC1)Nc1cc(-c2nnc(SCc3cccc(F)c3)o2)ccn1
The melting point of the first is higher: 206 to 209 °C for the first, 149 to 150 °C for the second.

First: NC(=O)N(O)Cc1ccc(Br)s1
Second: CC(=O)NCC1CC1c1cccc2nnsc12 (stereo not given)
The melting point of the first is higher: 145 to 147 °C for the first, 81 to 82 °C for the second.

First: Cc1ccc(S(=O)(=O)NC(=O)OCCc2ccc(-n3c(CCCN4CCCC4=O)nc4cc(C(F)(F)F)c(Cl)cc43)cc2)cc1
Second: N#Cc1cc(Cl)cc(Oc2ccc(CC(=O)Nc3ccc(CS(N)(=O)=O)cc3)cc2Br)c1
The melting point of the first is lower: 85 to 90 °C for the first, 133 to 135 °C for the second.

Compared with `CCOC(=O)c1c(-c2ccccc2)c2ccc(OC)cc2[nH]c1=O`, `O=C1c2ccccc2-c2c1c(=O)[nH]c1ccccc21` is higher in melting point: 175 to 177 °C for the first, over 290 °C for the second.

First: NC(=O)Nc1ccc2c(c1)C(CN1CCC(c3ccc(F)cc3)CC1)CC2 (stereo not given)
Second: COc1ccc(S(=O)(=O)NCC2CCN(C[C@H]3COc4ccc(Cl)cc4O3)CC2)cc1
The melting point of the first is higher: 172 to 174 °C for the first, 130 to 131 °C for the second.

First: O=C1CCC(N2C(=O)c3cccc(NC(=O)COc4ccccc4)c3C2=O)C(=O)N1 (stereo not given)
Second: CC(=O)Nc1cccc2c1C(=O)c1c-2n[nH]c1-c1cccs1
The melting point of the first is lower: 236 to 238 °C for the first, 269 °C for the second.

First: CC(C)(C)c1cc(O)cc(C(C)(C)C)c1Sc1nnc(-c2ccccn2)o1
Second: O=C(Nc1cccc(Nc2nc(-c3cccnc3)cs2)c1)c1ccc(/C=C/ONO)s1
The melting point of the first is lower: 128 to 129 °C for the first, 206 °C for the second.

First: CCCCC(=O)c1c(-c2ccc3c(C)c(OCC(=O)O)ccc3c2)oc2ccccc12
Second: Oc1ccc(-c2c3ccccc3cc3sc4ccccc4c23)cc1O
The melting point of the first is lower: 153 to 155 °C for the first, 188 to 189 °C for the second.

First: CSC(=S)NN=Cc1c[nH]c(C)n1
Second: CC(C)(C=NO)Cc1ccc(Cl)c(Cl)c1
The melting point of the first is higher: 274 to 279 °C for the first, 84 °C for the second.

First: CCOC(=O)CCNC(=O)CNC(=O)c1csc(NC(=O)NCc2ccccc2)n1
Second: CCOc1cccc(CNCCc2ccccc2)c1O
The melting point of the first is higher: 187 °C for the first, 88 to 90 °C for the second.

First: CCc1nnc(-c2ccccc2)c(=O)n1N
Second: O=C(O)c1ncn2c1CN=C(c1ccccc1)c1cc(Br)ccc1-2
The melting point of the first is lower: 164 °C for the first, over 250 °C for the second.

Compared with `COc1ccc(Nc2nc3cc4c(cc3[nH]2)NC(=O)C4(C)C)cc1`, `COc1ccc2cc(C3=CC4CCC(C3)N4)ccc2c1` (stereo not given) is lower in melting point: 286 to 288 °C for the first, 138 °C for the second.

First: COc1cc2c(cc1OC)[C@H]1CCCC[C@H]1N=C2c1ccc(C(C)=NNC(=O)c2cccnc2)cc1
Second: COc1ccc(C(=C2CCCCC2)c2ccc(OC)cc2)cc1
The melting point of the first is higher: 162 °C for the first, 106 to 107 °C for the second.

Compared with `O=C1CC2(CCCC2)CC(=O)N1c1ccncc1`, `O=C(OC1CCCCCCC1)n1c(-c2cscn2)nc2ccccc21` is lower in melting point: 208 to 211 °C for the first, 85 to 88 °C for the second.

First: CC(C)(C)OC(=O)CN(CC(=O)OC(C)(C)C)S(=O)(=O)c1ccc(N2CCC(NC[C@H](O)c3ccc(O)c(NS(C)(=O)=O)c3)CC2)cc1
Second: CC(C)(C)OC(=O)N1CCC(c2ccc(COc3ccc(-n4cncn4)cc3)nc2)CC1
The melting point of the first is higher: 164 to 166 °C for the first, 147 to 150 °C for the second.

First: COc1ccc(C2=NN(C3CCN(S(=O)(=O)N(C)C)CC3)C(=O)C(C)(C)C2)cc1OC
Second: COCCOc1cc(N(C)S(=O)(=O)c2cccs2)c2[nH]c(C(=O)O)cc2c1
The melting point of the first is lower: 172 to 174 °C for the first, 198 to 199 °C for the second.

First: O=C(O)[C@@H]1CCCN(CC#CCN2c3ccccc3CCc3ccccc32)C1
Second: CCN1C[C@@H](C(=O)O)N(C(=O)[C@H](C)CSC(=O)c2ccccc2)C1=O
The melting point of the first is higher: 153 to 154 °C for the first, 139 to 141 °C for the second.

Compared with `COC(=O)N(C(=O)NN=C1c2ccc(Cl)cc2CC1(O)C(=O)OC)c1ccc(OC(F)(F)F)cc1` (stereo not given), `N#Cc1ccc(C(=O)Cc2ccc(C#N)cc2[N+](=O)[O-])cc1` is higher in melting point: 168 °C for the first, 188 to 190 °C for the second.

First: Cc1cc(OCCC[Si](C)(C)C)c(Cl)cc1[N+](=O)[O-]
Second: CCOC(=O)CCCCNc1ncc([N+](=O)[O-])cc1[N+](=O)[O-]
The melting point of the first is lower: 66 to 68 °C for the first, 70 to 72 °C for the second.

First: O=C1NC(=O)c2c1c(-c1ccccc1Cl)cc1c2c(Br)cn1CCCN1CCCC1
Second: O=C1Nc2ccccc2C12COc1cc3c(cc12)CCCO3 (stereo not given)
The melting point of the first is lower: 158 to 161 °C for the first, 216 to 220 °C for the second.

Compared with `CS(=O)(=O)c1nnc(C(F)(F)F)s1`, `FC(F)(F)c1cnc(-n2ccc3ccncc32)c(Cl)c1` is higher in melting point: 84 °C for the first, 88 to 90 °C for the second.

Compared with `CNC(=O)CCC(=O)c1ccccc1`, `COC(=O)CCn1nc2ccccn2c1=O` is higher in melting point: 80 to 82 °C for the first, 95 to 99 °C for the second.

Compared with `CCOC(=O)c1cc(OC)c2oc(C)c(C)c2c1`, `CC(C)C(=O)Nc1nc(N)cnc1-c1cc(Cl)cc(Cl)c1Cl` is higher in melting point: 67 to 68 °C for the first, 105 to 108 °C for the second.

First: Cc1ccc(C(O)CCN(C)C)s1 (stereo not given)
Second: CC(C)(CO)c1ccc(C=O)c(O)c1
The melting point of the first is lower: 66.5 to 68 °C for the first, 80.4 to 81.9 °C for the second.

First: N#CSCCNc1ccc([N+](=O)[O-])cc1Cl
Second: CCN(CC)CCNc1cc(Cl)c(N)c(CCN(CC)CC)c1[N+](=O)[O-]
The melting point of the first is higher: 148 to 150 °C for the first, 90 °C for the second.

Compared with `CCCCCCNC(=O)Oc1cccc(NC(=O)CC(C)(OC)OC)c1`, `CCN1CN(C2CC(O)C(CO)O2)C(=O)NC1=O` (stereo not given) is higher in melting point: 110 °C for the first, 162 °C for the second.
